Results: patent US20260294922A1, “Inhibitors of JUN N-Terminal Kinases (JNK1, JNK2, and/or JNK3) and Mitogen-Activated Protein Kinases (MAPK8, MAPK9, and/or MAPK10) and Methods of Using Same” (Baylor College of Medicine, priority 2023, published 2026)
≈ marks a conversion by molar mass, not a printed value. Entries after “also recorded” stand apart in the source; their conditions may differ. Where two headings read alike, the source gives them in different places. One block for each molecule: values may come before it.

Key:
JNK2 [1] = molecular target: T1, JNK2 (Homo sapiens, UniProt P45984); assay: JNK2 kinase (intrinsic ATPase, Kinase-Glo) assay; format: biochemical
T1 sequence (P45984 whole entry): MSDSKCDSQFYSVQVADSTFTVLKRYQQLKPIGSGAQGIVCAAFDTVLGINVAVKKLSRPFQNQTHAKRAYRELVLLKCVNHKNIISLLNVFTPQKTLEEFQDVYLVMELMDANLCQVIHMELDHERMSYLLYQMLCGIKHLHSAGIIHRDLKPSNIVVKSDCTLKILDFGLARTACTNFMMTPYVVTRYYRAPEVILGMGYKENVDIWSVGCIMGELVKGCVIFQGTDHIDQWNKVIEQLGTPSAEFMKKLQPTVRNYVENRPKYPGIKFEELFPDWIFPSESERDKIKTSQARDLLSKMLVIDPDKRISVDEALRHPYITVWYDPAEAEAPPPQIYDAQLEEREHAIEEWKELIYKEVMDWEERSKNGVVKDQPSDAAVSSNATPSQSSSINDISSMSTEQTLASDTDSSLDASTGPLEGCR

[2] = In vitro metabolism in human liver microsomes; details: human, microsomes
Description: (§1) The target product profile seeks to deliver JNK inhibitor as a once daily oral administration. To prioritize compounds for further development, in vitro metabolism of several CDD JNK inhibitors were determined to approximate the plasma half-life and the rate of metabolism of the compounds in vivo.

JNK1 [3] = molecular target: T2, JNK1 (Homo sapiens, UniProt P45983); assay: Promega NanoBRET intracellular target engagement (tracer K10 displacement), JNK1; format: cell-based
T2 sequence (P45983 whole entry): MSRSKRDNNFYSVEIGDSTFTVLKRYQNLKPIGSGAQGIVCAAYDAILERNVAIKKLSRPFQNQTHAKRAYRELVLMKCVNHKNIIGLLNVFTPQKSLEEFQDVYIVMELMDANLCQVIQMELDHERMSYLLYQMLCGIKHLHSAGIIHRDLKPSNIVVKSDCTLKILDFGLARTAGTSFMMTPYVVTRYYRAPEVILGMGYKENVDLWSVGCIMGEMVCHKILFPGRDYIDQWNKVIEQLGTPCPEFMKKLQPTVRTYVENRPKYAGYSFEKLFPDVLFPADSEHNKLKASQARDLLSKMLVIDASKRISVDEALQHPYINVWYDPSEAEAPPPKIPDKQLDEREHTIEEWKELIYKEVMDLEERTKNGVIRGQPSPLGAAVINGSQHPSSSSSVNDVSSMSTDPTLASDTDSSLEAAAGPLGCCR

JNK3 [4] = molecular target: T3, JNK3 (Homo sapiens, UniProt P53779); assay: JNK3 kinase (intrinsic ATPase, Kinase-Glo) assay; format: biochemical
T3 sequence (P53779 whole entry): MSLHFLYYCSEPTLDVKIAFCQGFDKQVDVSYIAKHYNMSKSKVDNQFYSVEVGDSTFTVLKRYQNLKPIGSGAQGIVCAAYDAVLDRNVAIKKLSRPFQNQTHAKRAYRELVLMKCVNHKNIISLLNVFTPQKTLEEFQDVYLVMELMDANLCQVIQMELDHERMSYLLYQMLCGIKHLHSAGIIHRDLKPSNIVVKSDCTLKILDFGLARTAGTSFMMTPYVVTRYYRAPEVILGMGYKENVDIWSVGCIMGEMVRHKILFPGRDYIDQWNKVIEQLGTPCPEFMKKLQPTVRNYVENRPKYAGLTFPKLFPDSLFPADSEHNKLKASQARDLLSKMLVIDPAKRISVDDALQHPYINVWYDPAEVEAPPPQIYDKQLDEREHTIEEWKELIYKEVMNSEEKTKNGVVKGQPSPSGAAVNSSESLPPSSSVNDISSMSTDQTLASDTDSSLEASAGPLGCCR

HepG2 cells = assay: HepG2 cell viability (ATP consumption); details: CDD-2575 25 μM; CDD-2728, CDD-2624 up to 75
Description: This assay reflects cell viability. […] To determine if the responses observed in endometriotic epithelial cells and endometriotic stromal cell cultures were cytotoxic, cell viability was performed in HepG2 cells.

JNK2 [5] = molecular target: T1, JNK2; assay: Promega NanoBRET intracellular target engagement (tracer K10 displacement), JNK2; format: cell-based
[6] = In vitro metabolism in mouse liver microsomes; details: mouse, microsomes
Description: as §1

JNK1 [7] = molecular target: T2, JNK1; assay: JNK1 kinase (intrinsic ATPase, Kinase-Glo) assay; format: biochemical
Method in brief: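 Full-length construct not stated; kinases hydrolyse ATP without peptide substrate, reaction run 30 or 60 min at 30° C, remaining ATP read by Kinase-Glo luminescence with no-kinase controls. Apparent Ki from normalized fractional activities fitted to modified Morrison tight-binding equation; orthogonal LanthaScreen binding assay gave IC50.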

JNK3 [8] = molecular target: T3, JNK3; assay: Promega NanoBRET intracellular target engagement (tracer K10 displacement), JNK3; format: cell-based
hVPS34 = molecular target: T4, hVPS34 (Homo sapiens, UniProt Q8NEB9); assay: ThermoFisher SelectScreen, hVPS34; format: binding; details: Table 4
T4 construct: purchased ThermoFisher (SelectScreen, outsourced service)
T4 sequence (Q8NEB9 whole entry): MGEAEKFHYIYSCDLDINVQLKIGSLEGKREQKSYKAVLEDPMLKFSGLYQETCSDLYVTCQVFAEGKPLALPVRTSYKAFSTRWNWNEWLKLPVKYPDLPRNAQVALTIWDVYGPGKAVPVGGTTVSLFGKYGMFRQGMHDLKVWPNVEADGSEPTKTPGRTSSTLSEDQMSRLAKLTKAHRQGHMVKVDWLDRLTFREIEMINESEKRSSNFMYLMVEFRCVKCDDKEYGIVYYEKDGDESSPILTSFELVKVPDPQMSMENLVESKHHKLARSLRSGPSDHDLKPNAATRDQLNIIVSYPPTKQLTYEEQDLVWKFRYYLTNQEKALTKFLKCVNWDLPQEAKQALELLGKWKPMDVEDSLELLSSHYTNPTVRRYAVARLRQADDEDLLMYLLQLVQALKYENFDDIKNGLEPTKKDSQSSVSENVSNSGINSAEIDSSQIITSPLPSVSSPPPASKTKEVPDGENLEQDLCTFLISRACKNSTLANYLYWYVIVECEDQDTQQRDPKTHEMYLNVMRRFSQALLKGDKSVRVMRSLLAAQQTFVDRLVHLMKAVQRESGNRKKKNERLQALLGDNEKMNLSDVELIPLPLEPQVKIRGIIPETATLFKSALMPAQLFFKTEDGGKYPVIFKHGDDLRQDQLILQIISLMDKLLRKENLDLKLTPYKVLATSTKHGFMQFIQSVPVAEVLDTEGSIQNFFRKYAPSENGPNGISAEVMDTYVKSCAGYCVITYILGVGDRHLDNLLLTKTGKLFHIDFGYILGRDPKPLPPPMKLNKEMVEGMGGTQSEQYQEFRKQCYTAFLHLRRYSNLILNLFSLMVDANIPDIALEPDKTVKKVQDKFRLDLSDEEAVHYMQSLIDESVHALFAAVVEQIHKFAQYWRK
Description: (§2) To mitigate violation of the linear initial velocity principle, which is a problem in end-point assays when doing dose-responses, the enzyme concentration was carefully optimized, in a total assay volume of 25 μL. The assay was performed using 10 μM ATP, 0.02% Tween-20, kinase buffer from Cell Signaling (#9802) in white 384-well plates. The kinase reaction was done for 30 or 60 min at 30° C., and detection of leftover ATP was measured according to Promega's protocol. […] Fractional activities were obtained from normalized data. Non-linear regression (GraphPad Prism7) and a modified Morrison equation for tight binding was used to determine apparent Ki values for inhibitors, assuming no particular mode of inhibition. An orthogonal binding assay (LanthaScreen) was outsourced to ThermoFisher Scientific's SelectScreen Services to determine IC50 values.
(§3) One of the earliest compounds to be synthesized with favorable enzymatic activity towards JNK1 and JNK3 was CDD-2346. A KINOMEscan was performed for CDD-2346 to establish whether the selectivity of this chemical scaffold was suitable or required optimization. […] To confirm that the activity against each kinase was a true result and not a false positive, CDD-2346 was evaluated in kinase assays using ThermoFisher SelectScreen platform. The results from these assays are provided herein (Table 4). The important innovative steps described are the optimization of selectivity a) for JNK isoforms; b) for kinases considered “in-pathway”; and c) to avoid kinases considered “out-of-pathway”.

CSNK1E = molecular target: T5, CSNK1E (Homo sapiens, UniProt P49674); assay: ThermoFisher SelectScreen, CSNK1E; format: binding
T5 construct: purchased ThermoFisher (SelectScreen)
T5 sequence (P49674 whole entry): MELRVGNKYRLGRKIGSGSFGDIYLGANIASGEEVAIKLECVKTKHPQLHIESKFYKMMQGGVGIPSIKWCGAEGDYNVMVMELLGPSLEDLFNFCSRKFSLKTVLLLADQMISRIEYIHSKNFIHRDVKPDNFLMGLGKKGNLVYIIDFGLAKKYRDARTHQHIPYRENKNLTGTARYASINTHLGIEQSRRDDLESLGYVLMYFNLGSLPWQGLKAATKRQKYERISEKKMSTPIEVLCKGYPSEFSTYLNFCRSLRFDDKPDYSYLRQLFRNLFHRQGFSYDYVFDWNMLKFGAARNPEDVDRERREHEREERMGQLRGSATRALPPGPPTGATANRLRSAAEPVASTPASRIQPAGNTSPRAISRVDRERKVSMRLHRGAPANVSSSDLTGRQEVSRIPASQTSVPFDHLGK

MEK4 = molecular target: T6, MEK4 (Homo sapiens, UniProt P45985); assay: ThermoFisher SelectScreen, MEK4; format: binding
T6 construct: purchased ThermoFisher (SelectScreen)
T6 sequence (P45985 1-399): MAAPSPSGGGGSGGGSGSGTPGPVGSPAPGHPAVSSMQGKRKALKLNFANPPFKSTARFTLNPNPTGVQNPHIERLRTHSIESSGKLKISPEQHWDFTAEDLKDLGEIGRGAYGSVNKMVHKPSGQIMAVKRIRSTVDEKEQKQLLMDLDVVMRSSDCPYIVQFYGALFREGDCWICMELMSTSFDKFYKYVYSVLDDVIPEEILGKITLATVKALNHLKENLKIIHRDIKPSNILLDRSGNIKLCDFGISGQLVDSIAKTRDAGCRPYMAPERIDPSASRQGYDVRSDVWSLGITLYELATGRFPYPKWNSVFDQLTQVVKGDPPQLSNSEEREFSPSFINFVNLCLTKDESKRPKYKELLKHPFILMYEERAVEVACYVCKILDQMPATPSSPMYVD

JNK3 [9] = molecular target: T3, JNK3; assay: ThermoFisher SelectScreen, JNK3; format: binding
MEK5 = molecular target: T7, MEK5 (Homo sapiens, UniProt Q13163); assay: ThermoFisher SelectScreen, MEK5; format: binding; details: Table 4
T7 construct: purchased ThermoFisher (SelectScreen, outsourced service)
T7 sequence (Q13163 1-448): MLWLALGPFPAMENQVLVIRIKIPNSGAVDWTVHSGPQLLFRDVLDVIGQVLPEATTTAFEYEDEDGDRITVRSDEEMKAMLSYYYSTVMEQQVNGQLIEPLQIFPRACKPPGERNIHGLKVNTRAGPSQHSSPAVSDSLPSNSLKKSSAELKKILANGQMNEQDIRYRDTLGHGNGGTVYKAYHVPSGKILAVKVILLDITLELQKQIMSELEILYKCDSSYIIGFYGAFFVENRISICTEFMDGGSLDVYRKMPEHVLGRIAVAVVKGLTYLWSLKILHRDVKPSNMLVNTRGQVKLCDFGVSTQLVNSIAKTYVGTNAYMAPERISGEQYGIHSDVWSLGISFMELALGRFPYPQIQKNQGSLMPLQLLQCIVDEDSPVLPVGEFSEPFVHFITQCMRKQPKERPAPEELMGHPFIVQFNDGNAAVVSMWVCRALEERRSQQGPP
Description: as §2, §3

LATS1 [10] = molecular target: T8, LATS1 (Homo sapiens, UniProt O95835); assay: KINOMEscan, LATS1; format: binding; details: 1 μM
T8 sequence (O95835 whole entry): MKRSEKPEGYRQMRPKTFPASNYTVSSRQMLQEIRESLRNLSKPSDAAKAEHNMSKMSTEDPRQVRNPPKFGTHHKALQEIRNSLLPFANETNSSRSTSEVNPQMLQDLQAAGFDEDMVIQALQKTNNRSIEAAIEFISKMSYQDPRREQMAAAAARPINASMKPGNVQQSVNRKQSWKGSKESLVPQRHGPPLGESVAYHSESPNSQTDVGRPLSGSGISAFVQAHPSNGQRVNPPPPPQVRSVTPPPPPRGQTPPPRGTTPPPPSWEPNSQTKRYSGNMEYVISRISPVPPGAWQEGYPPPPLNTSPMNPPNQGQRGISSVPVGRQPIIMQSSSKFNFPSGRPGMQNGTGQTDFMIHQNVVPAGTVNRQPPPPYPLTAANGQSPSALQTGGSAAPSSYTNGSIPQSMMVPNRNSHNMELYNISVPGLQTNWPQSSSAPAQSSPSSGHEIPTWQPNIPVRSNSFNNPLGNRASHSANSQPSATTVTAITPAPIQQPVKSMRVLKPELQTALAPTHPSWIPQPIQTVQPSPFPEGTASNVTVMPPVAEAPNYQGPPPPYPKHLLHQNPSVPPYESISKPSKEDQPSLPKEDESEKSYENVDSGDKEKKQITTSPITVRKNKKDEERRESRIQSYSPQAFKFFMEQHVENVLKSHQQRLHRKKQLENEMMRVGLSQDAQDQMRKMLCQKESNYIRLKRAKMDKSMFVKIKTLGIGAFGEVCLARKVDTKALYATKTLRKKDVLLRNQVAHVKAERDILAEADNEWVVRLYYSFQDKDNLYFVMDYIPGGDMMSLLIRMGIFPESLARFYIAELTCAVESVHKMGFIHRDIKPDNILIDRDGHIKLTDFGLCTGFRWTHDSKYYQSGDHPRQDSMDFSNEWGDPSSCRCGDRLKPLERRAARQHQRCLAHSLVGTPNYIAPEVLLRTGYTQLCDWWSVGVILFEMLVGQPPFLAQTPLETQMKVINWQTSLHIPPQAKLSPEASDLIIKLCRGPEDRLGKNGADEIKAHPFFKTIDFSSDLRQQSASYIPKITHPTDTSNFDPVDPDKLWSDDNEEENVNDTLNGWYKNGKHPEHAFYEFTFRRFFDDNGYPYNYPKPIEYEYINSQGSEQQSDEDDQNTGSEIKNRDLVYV

[11] = cited from earlier work; for clinical safety: Phase 1 volunteers / IPF
Other MAPK = assay: Eurofins KdSelect, other MAPK; format: binding; details: Table 2; IC50 nM; read-out: Other MAPK, based on Kd select results
Text: The next step was to confirm that the compounds that bound to JNK1, JNK2 or JNK3 in a competitive manner, relative to bentamapimod, were inhibitors of the ATP-dependent kinase activity in assays. In many cases, the results have been replicated at ThermoFisher using their SelectScreen technology platform. Based on knowledge about JNK inhibitors, and the results of DEC-Tec selections, a target compound profile was developed (Table 2).
The efficacy and selectivity of BEND and TANZ were used to define a realistic preliminary target compound profile (Table 2) for the next generation of JNK1-3 inhibitors for the treatment of endometriosis.

[12] = test system: immortalized human endometriotic epithelial cells (iHEEC); assay: Phosphorylation of JNK and Jun in iHEEC; format: cell-based
Text: FIG. 26A depicts the effects of CDD-2728 and CDD-3013 on phosphorylation of the JNK enzyme itself (i.e., representing MEK4 inhibition) and phosphorylation of pSer63 and pSer73 on the transcription factor Jun in immortalized human endometriotic epithelial cells (iHEEC). The HEEC cells are a well characterized cell line that are relevant for the evaluation of inflammatory endpoints and measures of epithelial-to-mesenchymal transitions (EMT). […] This is consistent with the potency relationships of CDD-2728 relative to bentamapimod observed in cytokine gene expression described above in iHEEC cells and primary human stromal endometriotic cells. […] SP600125 has been frequently described as a poorly-selective JNK-I but in this context provides additional confirmation of inhibition of the JNK target kinase for CDD-2728. […] This adds further support to the critical role of JNK-1 to the therapeutic effect of the JNK inhibitors of the disclosure.

LATS1 [13] = molecular target: T8, LATS1; assay: ThermoFisher Z'Lyte assay, LATS1; format: biochemical
Text: Inhibition of LATS1 was not confirmed in a subsequent ThermoFisher Z'Lyte assay.

CSNK1D = molecular target: T9, CSNK1D (Homo sapiens, UniProt P48730); assay: ThermoFisher SelectScreen, CSNK1D; format: binding
T9 construct: purchased ThermoFisher (SelectScreen)

CLK2 = molecular target: T10, CLK2 (Homo sapiens, UniProt P49760); assay: ThermoFisher SelectScreen, CLK2; format: binding
T10 construct: purchased ThermoFisher (SelectScreen)
T10 sequence (P49760 whole entry): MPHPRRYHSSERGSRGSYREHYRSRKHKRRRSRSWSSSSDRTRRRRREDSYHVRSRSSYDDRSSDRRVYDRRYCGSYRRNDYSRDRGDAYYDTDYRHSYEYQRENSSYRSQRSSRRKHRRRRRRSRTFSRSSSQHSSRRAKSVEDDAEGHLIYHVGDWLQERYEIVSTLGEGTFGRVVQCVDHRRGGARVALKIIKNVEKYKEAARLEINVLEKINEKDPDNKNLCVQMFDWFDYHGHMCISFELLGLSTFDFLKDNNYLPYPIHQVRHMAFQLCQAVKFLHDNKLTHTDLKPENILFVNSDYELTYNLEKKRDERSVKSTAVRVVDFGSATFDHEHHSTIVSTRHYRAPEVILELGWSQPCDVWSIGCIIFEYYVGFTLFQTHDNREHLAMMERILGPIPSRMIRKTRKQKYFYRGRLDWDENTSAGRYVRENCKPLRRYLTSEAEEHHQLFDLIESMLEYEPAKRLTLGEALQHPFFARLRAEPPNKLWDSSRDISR

CSNK1G1 = molecular target: T11, CSNK1G1 (Homo sapiens, UniProt Q9HCP0); assay: ThermoFisher SelectScreen, CSNK1G1; format: binding; details: Table 4
T11 construct: purchased ThermoFisher (SelectScreen)
T11 sequence (Q9HCP0 whole entry): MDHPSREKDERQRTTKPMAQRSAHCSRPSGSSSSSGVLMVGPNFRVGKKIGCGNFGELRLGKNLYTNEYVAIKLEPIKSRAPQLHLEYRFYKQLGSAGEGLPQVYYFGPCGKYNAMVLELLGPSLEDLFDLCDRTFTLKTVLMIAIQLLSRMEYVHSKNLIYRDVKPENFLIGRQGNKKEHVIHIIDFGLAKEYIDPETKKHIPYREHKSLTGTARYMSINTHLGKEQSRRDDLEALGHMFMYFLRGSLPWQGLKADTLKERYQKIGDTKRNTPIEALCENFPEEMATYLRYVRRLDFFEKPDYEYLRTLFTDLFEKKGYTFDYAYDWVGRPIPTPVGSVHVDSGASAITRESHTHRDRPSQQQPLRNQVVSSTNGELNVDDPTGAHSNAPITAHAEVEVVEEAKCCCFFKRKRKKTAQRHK
Description: as §2, §3
No activity of CDD-2728 was detected for Atypical, Mutant, or Lipid kinases. To confirm CDD-2728 inhibition results in the KINOMEscan analysis, individual binding assays were performed on the kinases to which CDD-2728 bound using ThermoFisher SelectScreen.

JNK1 [14] = molecular target: T2, JNK1; assay: JNK1 biochemical assay (piperazine series)
Text: FIG. 21B depicts concentration-dependent inhibition of JNK1 with CDD-1722 and CDD-1723. Components of CDD-1722 and CD-1723 represent alternative building blocks which may be incorporated during optimization of pharmaceutical properties of JNK-I.

SMILES: CNCc1ccc(NC(=O)c2ccn3ncc(-c4cnc(N)nc4)c3c2)cc1 [CDD-2387, 3-(2-aminopyrimidin-5-yl)-N-(4-((methylamino)methyl)phenyl)pyrazolo[1,5-a]pyridine-5-carboxamide]
Kd (hVPS34): 0.13 µM
Kd (JNK2 [1]; Table 3a, read-out: Kd JNK2): 0.0288 ± 0.0018 µM
half-life [2]: 2.04 h
Kd (JNK3 [4]; Table 3a, read-out: Kd JNK3): 0.00844 ± 0.00066 µM
solubility (Solubility): 254 µM (≈ 94.8 µg/mL)
Kd (CSNK1E): 2.66 µM
Kd (MEK4): 0.262 µM
Kd (JNK3 [9]): 0.0084 µM
half-life [6]: 2.01 h
Kd (MEK5): 40.7 µM
Kd (JNK1 [7]): 0.00296 ± 0.00032 µM

SMILES: O[C@H]1CC[C@H](Nc2ncc3nc(Nc4c(F)cc(F)cc4F)n([C@H]4CCOC4)c3n2)CC1 [CDD-985, tanzisertib]
LATS1 inhibition in KINOMEscan (LATS1 [10]): weakly inhibited
effect in preclinical IPF models and human IPF patients ([11]; IPF): reduced inflammation, EMT, and fibrosis
clinical safety ([11]; listed as TANZ): adverse liver effect
clinical safety ([11]; listed as Tanzisertib): deemed safe
Kd (Other MAPK): > 1000 nM
phosphorylation of Jun at pSer63 and pSer73 [12]: lack of efficacy
LATS1 inhibition in Z'Lyte assay (LATS1 [13]): not confirmed

SMILES: CNC(=O)CN1[C@H](CCNC(=O)OCc2ccccc2)CN(Cc2cccc3ccnn23)C[C@H]1CC(=O)NCCCN(C)c1ccc(F)cc1 [CDD-1723, benzyl (2-((2R,6R)-6-(2-((3-((4-fluorophenyl)(methyl)amino)propyl)amino)-2-oxoethyl)-1-(2-(methylamino)-2-oxoethyl)-4-(pyrazolo[1,5-a]pyridin-7-ylmethyl)piperazin-2-yl)ethyl)carbamate]
IC50 (JNK1 [3]): 24 µM
JNK1 inhibition (JNK1 [14]; in words): good inhibition of JNK1
IC50 (JNK2 [5]): 32 µM
IC50 (JNK3 [8]): 38 µM

SMILES: CNC(=O)CN1[C@@H](CCNC(=O)OCc2ccccc2)CN(Cc2cccc3ccnn23)C[C@@H]1CC(=O)NCCCN(C)c1ccc(F)cc1 [CDD-2009, benzyl (2-((2S,6S)-6-(2-((3-((4-fluorophenyl)(methyl)amino)propyl)amino)-2-oxoethyl)-1-(2-(methylamino)-2-oxoethyl)-4-(pyrazolo[1,5-a]pyridin-7-ylmethyl)piperazin-2-yl)ethyl)carbamate]
JNK1 activity relative to CDD-1723 (fold less active) (JNK1 [14]; enantiomer comparison): 20 fold

The next lines start with results.

Kd (JNK2 [1]; Table 3a, read-out: Kd JNK2): 0.00176 ± 0.00015 µM
half-life [2]: 6.81 h
IC50 (JNK1 [3]): 2.2 µM
Kd (JNK3 [4]; Table 3a, read-out: Kd JNK3): 0.00276 ± 0.00051 µM
solubility (Solubility): 40.6 µM (≈ 16.7 µg/mL)
IC50 (JNK2 [5]): 2.3 µM
half-life [6]: 1.95 h
Kd (JNK1 [7]): 0.00115 ± 0.00028 µM
IC50 (JNK3 [8]): 4.8 µM
SMILES: CNCc1ccc(NC(=O)c2cc3c(-c4cnc5[nH]ccc5c4)cccc3s2)cc1 [CDD-2575, N-(4-((methylamino)methyl)phenyl)-4-(1H-pyrrolo[2,3-b]pyridin-5-yl)benzo[b]thiophene-2-carboxamide]
effect on HepG2 cell viability / ATP consumption (HepG2 cells): non-specific decreases in cell viability were pronounced for CDD-2575 at 25 μM; also recorded: reduced ATP consumption

Kd (CSNK1D): 8.35 µM
Kd (hVPS34): 38 µM
Kd (JNK2 [1]): 0.00043 ± 9e-05 µM
half-life [2]: 0.213 h
Kd (JNK3 [4]): 0.00141 ± 0.00012 µM
Kd (CLK2): 1.17 µM
solubility (Solubility): 2.5 µM (≈ 1.28 µg/mL)
Kd (CSNK1G1): 95 µM
Kd (MEK4): 0.0602 µM
Kd (JNK3 [9]): 0.00141 µM
half-life [6]: 0.26 h
Kd (JNK1 [7]): 0.00028 µM
SMILES: COc1ccc(NC(=O)c2cc3c(-c4cnc5[nH]ccc5c4)cccc3s2)cc1C(=O)N1CCCCC1 [CDD-2491, N-(4-methoxy-3-(piperidine-1-carbonyl)phenyl)-4-(1H-pyrrolo[2,3-b]pyridin-5-yl)benzo[b]thiophene-2-carboxamide]
